In patent US20020128434A1, “Alpha-(1,3-dicarbonylenol ether) methyl ketones as cysteine protease inhibitors” (priority 1993, published 2002):
Converted amounts (≈) assume the structure as drawn. Like-named read-outs stand apart in the source and are kept apart here. *1 amine or outer side, *2 acyl side, *3 side chain or, on linkers, in order; H or OH if unused. Where a SMILES comes first, the peptide text is derived from it. [ ]: non-standard residue; d: D form. The star is where a group is joined. ξ: configuration not given here. hPhe = N[C@@H](CCc1ccccc1)C(=O)O; Morpholide = C1CN(*)CCO1; ξF = NC(Cc1ccccc1)C(=O)O; CO = O=C([*:1])[*:2]; CH2F = FC*

How the values were obtained:
[1] = biological target: T1, Cathepsin B, purified from human liver (Homo sapiens, UniProt P07858); assay: In vitro evaluation of inhibitors with purified cathepsin B; format: biochemical
T1 construct: Cathepsin B, purified from human liver; purchased Enzyme Systems Products (Dublin, Calif.); host or cells: human liver (tissue-purified)
Method: Enzyme: Cathepsin B, purified from human liver, is from Enzyme Systems Products (Dublin, Calif.). The activity is 50 mU per ml at 30° C., in 52 mM sodium phosphate, pH 6.2, 31 mM DTT, 2.1 mM EDTA, with 0.2 mM Z—Arg—Arg-7-amino-4-trifluoromethyl-coumarin as a substrate. Specific activity is 8330 mU per mg protein. (1 mU=1 nmol per min.)
Substrate Boc—Leu—Arg—Arg-7-amino-4-trifluoromethyl-coumarin-2HBr is from Enzyme Systems Products (Dublin, Calif.) and is known to be a specific substrate for cathepsin B. A 20 mM solution is made in DMF and stored at […].
Candidate inhibitors are dissolved in DMF and diluted to 20 mM and stored at […]. Dilutions are made in assay buffer.
The percent inhibition and the inhibitor concentration at which the enzyme is 50% inhibited (IC50) are determined as follows. Five μl of assay buffer (50 mM potassium phosphate pH 6.2, 2 mM EDTA, 5 mM DTT) on ice for 30 min. The inhibition is initiated by the addition of […] inhibitor each to the 480 μl aliquots. The 485 μl aliquot with enzyme is used as a control and thus receives no inhibitor. The enzyme/inhibitor mixtures are incubated 10 min. on ice and assayed for cathepsin B activity as follows:
Cathepsin B assay: To 490 μl of pre-incubated inhibitor/enzyme mixtures in assay buffer in 0.5 ml cuvette at 37° is added 10 μl of the substrate. Final inhibitor concentrations become 2000 nM, 200 nM, and 20 nM for the 200 μM, 20 μM and 2 μM stock concentrations, respectively. Activity is followed by release of free AFC over 5 min. The change in fluorescence is (fluorescence units at t=6)−(fluorescence units at t=1) with a Perkin-Elmer LS-5B spectrofluorometer (ex=400 nm, em=505 nm). The percent inhibition is determined by comparing the change in fluorescence units of the three sample concentrations of inhibited enzyme to the change in fluorescence units of the control enzyme. The percent inhibition is calculated as:
100−(fl. units of sample/fl. units of control×100).
The IC50 is ascertained by plotting percent inhibition vs. inhibitor concentration on the log scale. The IC50 is the concentration of the inhibitor (nM) at which the enzyme is inhibited by 50%.

Pneumocystis carinii = assay: In vitro inhibition of Pneumocystis carinii in culture with human embryonic lung fibroblast monolayers; format: cell-based
Method: The percent of inhibition is calculated as 100−(the number of P. carinii trophozoites in a treated cell culture/number of trophosites of the control)×100.
Methods. The drugs dissolved in dimethyl sulfoxide were diluted to concentrations of 10 μg/ml for compound 3 and […] for compound 9 in minimum essential medium used for the culture of human embryonic lung fibroblasts. […] Cell cultures in 24-well plates were innoculated with P. carinii trophozoites (final concentration, about 7×10^5 per ml) obtained from infected rat lungs. Each culture plate contained untreated and treated wells. Plates were incubated at 35° C. in a gas mixture of 5% O2, 10% CO2, 85% N2 for up to 7 days. Plates were sampled on days 1, 3, 5 and 7 by removal of 10 μl amounts after agitation of the cultures. The samples were placed on slides in 1-cm^2 areas, fixed in methanol and stained with Giemsa stain; and then they were examined microscopically as unknowns by two individuals. For each parameter there were four wells, making eight values for each parameter. Standard errors range from 3-13%. Cultures were spiked with fresh drugs on days 2, 4 and 6.

T. cruzi [2] = assay: Inhibition of T. cruzi in infected cells, cell line J774; format: cell-based; details: days before cell monolayer is destroyed by infection; 20 μM, daily change of medium plus inhibitor
Method: (§1) Survival time is measured in days before the cell monolayer is destroyed by the infection. Irradiated BHK and J774 cells (six well plates) were infected with T. cruzi and simultaneously treated with 20 μM (3 ml total volume) with daily change of culture medium+plus inhibitor).
(§2) Cultivation and preparation of T. cruzi. Cloned and uncloned populations were derived from the strains Brasil, and CA-I and are cryopreserved in liquid nitrogen. Axenically cultured epimastigotes are maintained in exponential growth phase by weekly passage in Brain Heart Infusion-Tryptose medium (BHT media as given in Cazzulo, Cazzulo, Martinez, and Cazzulo, Some Kinetic Properties of a Cysteine Proteinase (Cruzipain) from Trypanosoma Cruzi. 33 Mol. Biochem. Parasitol. 33-42 (1990)), supplemented with […] 10% (v/v) heat inactivated fetal calf serum (FCS). Different host cell lines (J774 mouse macrophage, BHK, etc.) are cultured with RPMI-1640 supplemented with 5% FCS at 37° in a humidified atmosphere containing 5% CO2. Trypomastigotes liberated from the host cells are used to infect new cultures for serial maintenance of the parasite in cell culture. The protocols used for the in vitro assays of cysteine protease inhibitors are essentially as described by Harth, Andrews, Mills, Engel, Smith, and McKerrow, Peptide-Fluoromethyl Ketones Arrest Intracellular Replication and Intercellular Transmission of Trypanosoma Cruzi. 58 Mol. Biochem. Parasitol. 17-24 (1993), with the exception that in some experiments, the host cells are irradiated (2400 RADs) before infection to prevent them from dividing.

T. cruzi [3] = assay: Inhibition of T. cruzi in infected cells, cell line BHK; format: cell-based; details: days before cell monolayer is destroyed by infection; 20 μM, daily change of medium plus inhibitor
Method: as §1, §2

[4] = not given; remark: listed apart in the source
[5] = inhibitors with other heterocycles, read-out: IC5 Cathepsin B Inhibition
[6] = purified cathepsin B, read-out: IC50 Cat B

Compound	IC50 [1, 5] [nM]	IC50 [1, 6] [nM]	further results
Cc1ccc2cccc(OCC(=O)[C@H](CCc3ccccc3)NC(=O)[C@H](Cc3ccccc3)NC(=O)N3CCOCC3)c2n1	219		
Cc1cc(OCC(=O)[C@H](CCc2ccccc2)NC(=O)[C@H](Cc2ccccc2)NC(=O)N2CCOCC2)nc2ccccc12	282		
O=C(COc1ncnc2ccccc12)[C@H](CCc1ccccc1)NC(=O)[C@H](Cc1ccccc1)NC(=O)N1CCOCC1	1800		
O=C(COc1nc2ccccc2[nH]1)[C@H](CCc1ccccc1)NC(=O)[C@H](Cc1ccccc1)NC(=O)N1CCOCC1	569		
O=C(COc1nccc2ccccc12)[C@H](CCc1ccccc1)NC(=O)[C@H](Cc1ccccc1)NC(=O)N1CCOCC1	457		
O=C(COc1cc2ccccc2o1)[C@H](CCc1ccccc1)NC(=O)[C@H](Cc1ccccc1)NC(=O)N1CCOCC1	252		
O=C(COc1nc2ccccc2s1)[C@H](CCc1ccccc1)NC(=O)[C@H](Cc1ccccc1)NC(=O)N1CCOCC1	21000		
O=C(COc1cccs1)[C@H](CCc1ccccc1)NC(=O)[C@H](Cc1ccccc1)NC(=O)N1CCOCC1	79000		
CCOC(=O)c1c(C)noc1OCC(=O)[C@H](CCc1ccccc1)NC(=O)[C@H](Cc1ccccc1)NC(=O)N1CCOCC1	2190		
C[n+]1ccc2ccccc2c1OCC(=O)[C@H](CCc1ccccc1)NC(=O)[C@H](Cc1ccccc1)NC(=O)N1CCOCC1	5600		
O=C1CC(=O)C(c2ccccc2)=C1OCC(=O)[C@H](CCc1ccccc1)NC(=O)[C@H](Cc1ccccc1)NC(=O)N1CCOCC1 [Compound 1, N-Morpholinecarbonyl-L-phenylalanyl-L-homophenylalanine-α-(4-oxy-5-phenyl-4-cyclopentene-1,3-dione) methyl ketone]		94	
O=C1OC(C(O)CO)C(OCC(=O)C(CCc2ccccc2)NC(=O)C(Cc2ccccc2)NC(=O)N2CCOCC2)=C1O [Compound 2, N-Morpholinecarbonyl-L-phenylalanyl-L-homophenylalanyl-α-(4-ascorbityl) methyl ketone]		141	
CC1CC(OCC(=O)C(CCc2ccccc2)NC(=O)C(Cc2ccccc2)NC(=O)N2CCOCC2)=CC(=O)O1 [Compound 4, N-Morpholinecarbonyl-L-phenylalanyl-L-homophenylalanyl-α-(4-oxy-5,6-dihydro-6-methyl-2H-pyran-2-one) methyl ketone]		567	melting point: 74 to 78 °C
O=C(COc1cc(=O)oc2ccccc12)[C@H](CCc1ccccc1)NC(=O)[C@H](Cc1ccccc1)NC(=O)N1CCOCC1 [Compound 6, N-Morpholinecarbonyl-L-phenylalanyl-L-homophenylalanyl-α-(4-oxy-coumarin) methyl ketone]		45	Survival Time, Cell line J774 (T. cruzi [2]): ≥ 16 days; Survival Time, Cell line BHK (T. cruzi [3]): ≥ 16 days; melting point: 115 to 119 °C
O=C1OCC(OCC(=O)[C@H](CCc2ccccc2)NC(=O)[C@H](Cc2ccccc2)NC(=O)N2CCOCC2)=C1c1ccccc1 [Compound 9, N-Morpholinecarbonyl-L-phenylalanyl-L-homophenylalanyl-α-(4-oxy-3-phenyl-dihydrofuran-2-one) methyl ketone]		36	Survival Time, Cell line J774 (T. cruzi [2]): 4 days; Survival Time, Cell line BHK (T. cruzi [3]): 6 days; melting point: 114 to 116 °C
O=C(N[C@@H](CCc1ccccc1)C(=O)CF)C(Cc1ccccc1)NC(=O)N1CCOCC1 (stereo partly drawn) [Mu—Phe—HPhe—CH2F, Morpholine-carbonyl-phenylalanyl-homophenylalanyl-fluoromethylketone, reference compound] ({Morpholide-CO}-[ξF]-[hPhe]-CH2F)			Survival Time, Cell line J774 (T. cruzi [2]): ≥ 16 days; Survival Time, Cell line BHK (T. cruzi [3]): ≥ 16 days; aqueous solubility ([4]; 20° C., distilled and deionized water): 140 µg/mL (≈ 307 µM)
benzoxycarbonyl-phenylalanyl-alanylfluoromethyl ketone [Z—Phe—Ala—CH2F]			aqueous solubility ([4]; 14° C.): 45 µg/mL

More lines, main results first:

IC50 [1, 5] [nM]	IC50 [1, 6] [nM]	Compound	further results
229		CCC1OC(=O)C(OCC(=O)C(CCc2ccccc2)NC(=O)C(Cc2ccccc2)NC(=O)N2CCOCC2)=C1C (stereo not drawn)	
4500		Cc1cc(=O)oc2cc(OCC(=O)[C@H](CCc3ccccc3)NC(=O)[C@H](Cc3ccccc3)NC(=O)N3CCOCC3)ccc12	
4500		O=C(COc1ccc2ccc(=O)oc2c1)[C@H](CCc1ccccc1)NC(=O)[C@H](Cc1ccccc1)NC(=O)N1CCOCC1	
385		Cc1occc(=O)c1OCC(=O)[C@H](CCc1ccccc1)NC(=O)[C@H](Cc1ccccc1)NC(=O)N1CCOCC1	
	112	Cc1cc(OCC(=O)[C@H](CCc2ccccc2)NC(=O)[C@H](Cc2ccccc2)NC(=O)N2CCOCC2)cc(=O)o1 [Compound 3, N-Morpholinecarbonyl-L-phenylalanyl-L-homophenylalanyl-α-(4-oxy-6-methyl-2-pyrone) methyl ketone]	inhibition at 10 µg/mL (Pneumocystis carinii; 24 h, Day 1, 10 μg/ml for compound 3, 10 μM/ml for compound 9, read-out: Percent Inhibition, Day 1): 23%; inhibition at 10 µg/mL (Pneumocystis carinii; 48 h, Day 2, 10 μg/ml for compound 3, 10 μM/ml for compound 9, read-out: Percent Inhibition, Day 2): 44%; inhibition at 10 µg/mL (Pneumocystis carinii; 72 h, Day 3, 10 μg/ml for compound 3, 10 μM/ml for compound 9, read-out: Percent Inhibition, Day 3): 39%; inhibition at 10 µg/mL (Pneumocystis carinii; 96 h, Day 4, 10 μg/ml for compound 3, 10 μM/ml for compound 9, read-out: Percent Inhibition, Day 4): 13%
	400	Cc1cc(OCC(=O)[C@H](CCc2ccccc2)NC(=O)[C@H](CC(C)C)NC(=O)N2CCOCC2)cc(=O)o1 [Compound 5]	melting point: 70 to 75 °C
	25	Cc1cc(OCC(=O)[C@H](CCCCN)NC(=O)[C@H](Cc2ccccc2)NC(=O)N2CCOCC2)cc(=O)o1 [Compound 7]	melting point: 151 to 155 °C
	83	COc1ccc(C[C@H](NC(=O)N2CCOCC2)C(=O)N[C@@H](CCCCN)C(=O)COc2cc(C)oc(=O)c2)cc1 [Compound 8]	melting point: 140 to 142 °C
	8	COc1ccc(C[C@H](NC(=O)N2CCOCC2)C(=O)N[C@@H](CCCCN)C(=O)COC2=C(c3ccccc3)C(=O)OC2)cc1 [Compound 10, N-Morpholinecarbonyl-L-tryosyl (O-methyl)-L-lysyl-(4-oxy-3-phenyl-dihydrofuran-2-one) methyl ketone]	melting point: 140 to 142 °C
	5	NCCCC[C@H](NC(=O)[C@H](Cc1ccccc1)NC(=O)N1CCOCC1)C(=O)COC1=C(c2ccccc2)C(=O)OC1 [Compound 11, N-Morpholinecarbonyl-L-phenylalanyl-L-lysyl-α-(4-oxy-3-phenyl-dihydrofuran-2-one) methyl ketone]	melting point: 140 to 145 °C
